In patent publication US20250179077A1, “QUINAZOLINE COMPOUNDS AND USES THEREOF AS INHIBITORS OF MUTANT KRAS PROTEINS” (AMGEN INC., priority 2022, published 2025):
Where two headings read alike, the source gives them in different places.

Experiments:
[1] = target: GDP-bound KRAS protein (aa 1-169), containing both G12D and C118A amino acid substitutions (Homo sapiens, UniProt P01116, C118A/G12D); experiment: KRAS G12D Coupled Nucleotide Exchange Assay; format: biochemical
Method: KRAS G12D Coupled Nucleotide Exchange Assay
Following compound pre-incubation, purified SOS protein (aa 564-1049) and GTP (Roche 10106399001) were added to the assay wells and incubated for an additional 30 min. […] The assay plates were then read on a PerkinElmer EnVision Multilabel Reader, using AlphaScreen® technology, and data were analyzed using a 4-parameter logistic model to calculate IC50 values.

[2] = tested on: Phosphorylation of ERK1/2 in AsPC-1 cells; experiment: Phospho-ERK1/2 MSD Assay; format: cell-based
Method: AsPC-1 (ATCC® CRL-1682™) cells were cultured in RPMI 1640 Medium (ThermoFisher Scientific 11875093) containing 10% fetal bovine serum (ThermoFisher Scientific 16000044) and Ix penicillin-streptomycin-glutamine (ThermoFisher Scientific 10378016). Sixteen hours prior to compound treatment, AsPC-1 cells were seeded in 96-well cell culture plates at a density of 25,000 cells/well and incubated at 37° C., 5% CO2. A compound dose-response titration was diluted in growth media, added to appropriate wells of a cell culture plate, and then incubated at 37° C., 5% CO2 for 2 h. Following compound treatment, cells were washed with ice-cold Dulbecco's phosphate-buffered saline, no Ca^2+ or Mg^2+ (ThermoFisher Scientific 14190144), and then lysed in RIPA buffer (50 mM Tris-HCl pH 7.5, 1% Igepal, 0.5% sodium deoxycholate, 150 mM NaCl, and 0.5% sodium dodecyl sulfate) containing protease inhibitors (Roche 4693132001) and phosphatase inhibitors (Roche 4906837001). Phosphorylation of ERK1/2 in compound-treated lysates was assayed using Phospho-ERK1/2 Whole Cell Lysate kits (Meso Scale Discovery K151DWD) according to the manufacturer's protocol. Assay plates were read on a Meso Scale Discovery Sector Imager 6000, and data were analyzed using a 4-parameter logistic model to calculate IC50 values.

[3] = target: His-tagged KRAS G12D protein (Homo sapiens, UniProt P01116, G12D); experiment: KRAS G12D TR-FRET Assay; format: binding
Method: KRAS G12D TR-FRET Assay Compounds of interest were prepared in a dose-response titration in DMSO, and 80 nL were added via Labcyte Echo to each well of a 384-well plate (Perkin Elmer 6008280). The His-tagged KRAS G12D protein (Amgen) was diluted to 20 nM in Assay Buffer (20 mM HEPES, pH 7.4, 10 mM MgCl2, 50 mM NaCl, 0.1% BSA, 0.01% Tween-20, 10 μM GDP) and 2 uL was added to the appropriate wells of the 384-well plate. The plate was incubated for 30 minutes at room temperature. Biotinylated KRPep-2d substrate (Amgen) was diluted to 20 nM in Assay Buffer and 2 μL was added to all wells and incubated for 1 hour at room temperature. Detection Reagent (0.4 nM LANCE Eu-W1024 Anti-6×-His (Perkin Elmer AD0401), 5 nM streptavidin-d2 (Cisbio 610SADLA)) was prepared in Assay Buffer, then 4 μL was added to the plate and incubated for 1 hour at room temperature. Plates were read using PerkinElmer EnVision (ex: 320 nm, em1: 665 nm, em2: 615 nm) and em1/em2 data was used to generate curve fits using a 4-parameter logistic model to calculate IC50 values.

[4] = Homo sapiens, ASPC1, 2 h, read-out: 2 h p-ERK (AsPC-1 cells), IC50, AsPC-1 cells, 2 h compound treatment

Sequence of GDP-bound KRAS protein (aa 1-169), containing both G12D and C118A amino acid substitutions (P01116 1-169 isoform P01116-2 G12D/C118A): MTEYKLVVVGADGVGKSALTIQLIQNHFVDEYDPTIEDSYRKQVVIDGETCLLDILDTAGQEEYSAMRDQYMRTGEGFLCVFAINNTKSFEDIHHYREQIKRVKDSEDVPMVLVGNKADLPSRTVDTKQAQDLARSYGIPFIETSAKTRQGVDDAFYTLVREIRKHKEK
Sequence of His-tagged KRAS G12D protein (P01116 1-188 isoform P01116-2 G12D): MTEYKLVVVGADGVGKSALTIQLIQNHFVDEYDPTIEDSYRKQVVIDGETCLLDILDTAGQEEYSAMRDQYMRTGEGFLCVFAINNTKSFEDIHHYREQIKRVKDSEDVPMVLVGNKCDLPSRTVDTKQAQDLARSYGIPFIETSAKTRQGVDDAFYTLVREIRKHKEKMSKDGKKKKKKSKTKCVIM

| SMILES | IC50 [1] [nM] | IC50 [2, 4] [nM] | IC50 [3] [nM] | IC50 ([2]; read-out: 2 h p-ERK (AsPC-1 cells), IC50, AsPC-1 cells, 2 h compound treatment) [nM] |
| --- | --- | --- | --- | --- |
| C/C=C\c1c(Cl)cc2[nH]ncc2c1-c1ccc2c(N3CCC[C@@](C)(O)C3)nc(OC[C@@]34CCCN3C[C@H](F)C4)nc2c1F [Example 108, (3R)-1-(7-(6-Chloro-5-((Z)-prop-1-en-1-yl)-1H-indazol-4-yl)-8-fluoro-2-(((2R,7aS)-2-fluorotetrahydro-1H-pyrrolizin-7a(5H)-yl)methoxy)quinazolin-4-yl)-3-methylpiperidin-3-ol] | 3 | 115 | 4 |  |
| CCc1c(F)ccc2cc(N)cc(-c3c(F)cc4c(N5CCCC6(CCO6)C5)nc(OC[C@@]56CCCN5C[C@H](F)C6)nc4c3F)c12 (stereo partly drawn) [Example 75, 4-(6,8-Difluoro-2-(((2R,7aS)-2-fluorotetrahydro-1H-pyrrolizin-7a(5H)-yl)methoxy)-4-(1-oxa-6-azaspiro[3.5]nonan-6-yl)quinazolin-7-yl)-5-ethyl-6-fluoronaphthalen-2-amine] | 9 | 500 | 154 |  |
| CCc1c(F)ccc2cc(O)cc(-c3c(F)cc4c(N5CCC[C@@](C)(O)C5)nc(OC[C@@]56CCCN5C[C@H](F)C6)nc4c3F)c12 (single isomer, unassigned) [Example 2] | 1 | 9 | 1 |  |
| C/C=C\c1c(C)cc2[nH]ncc2c1-c1c(F)cc2c(N3CCC[C@]4(CCO4)C3)nc(OC[C@@]34CCCN3C[C@H](F)C4)nc2c1F (single isomer, unassigned) [Example 114] | 5 | 87 | 6 |  |
| CCc1c(F)ccc2cc(O)cc(-c3c(F)cc4c(N5CCC[C@]6(COC(=O)O6)C5)nc(OC[C@@]56CCCN5C[C@H](F)C6)nc4c3F)c12 (single isomer, unassigned) [Example 93] | 5 | 28 | 7 |  |
| C/C=C\c1c(Cl)cc2[nH]ncc2c1-c1c(F)cc2c(N3CCOC[C@@](C)(O)C3)nc(OC[C@@]34CCCN3C[C@H](F)C4)nc2c1F [Example 103, (6S)-4-(7-(6-Chloro-5-((Z)-prop-1-en-1-yl)-1H-indazol-4-yl)-6,8-difluoro-2-(((2R,7aS)-2-fluorotetrahydro-1H-pyrrolizin-7a(5H)-yl)methoxy)quinazolin-4-yl)-6-methyl-1,4-oxazepan-6-ol] | 5 | 27 | 7 |  |
| CC1(O)COCCN(c2nc(OC[C@@]34CCCN3C[C@H](F)C4)nc3c(F)c(-c4cc(O)cc5ccc(F)c(F)c45)ccc23)C1 (single isomer, unassigned) [Example 31] | 2 | 27 | 3 |  |
| CCc1c(F)ccc2cc(O)cc(-c3c(F)cc4c(N5CCOCC(C)(O)C5)nc(OC[C@@]56CCCN5C[C@H](F)C6)nc4c3F)c12 (single isomer, unassigned) [Example 35] | 43 |  | 122 |  |
| C#Cc1c(F)ccc2cc(N)cc(-c3c(F)cc4c(N5CCC[C@@](C)(O)C5)nc(OC[C@@]56CCCN5C[C@H](F)C6)nc4c3F)c12 (single isomer, unassigned) [Example 64] |  | 74 |  |  |
| CCc1c(F)ccc2cc(O)cc(-c3c(F)cc4c(N5CCCC(O)(C(F)F)C5)nc(OC[C@@]56CCCN5C[C@H](F)C6)nc4c3F)c12 (single isomer, unassigned) [Example 22] | 58 |  | 96 |  |
| CCc1c(F)ccc2cc(O)cc(-c3c(O)cc4c(N5CCC[C@@](C)(O)C5)nc(OC[C@@]56CCCN5C[C@H](F)C6)nc4c3F)c12 (single isomer, unassigned) [Example 28] | 302 |  | 273 |  |
| CCc1c(F)ccc2cc(O)cc(-c3ccc4c(N5CCC(C(N)=O)C5)nc(OC[C@@]56CCCN5C[C@H](F)C6)nc4c3F)c12 (stereo partly drawn) [Example 8, 1-(7-(8-Ethyl-7-fluoro-3-hydroxynaphthalen-1-yl)-8-fluoro-2-(((2R,7aS)-2-fluorotetrahydro-1H-pyrrolizin-7a(5H)-yl)methoxy)quinaquinazolin-4-yl)pyrrolidine-3-carboxamide] | 11 |  | 22 |  |
| C#Cc1cccc2cc(O)cc(-c3c(F)cc4c(N5CCC[C@@](C)(O)C5)nc(OC[C@@]56CCCN5C[C@H](F)C6)nc4c3F)c12 (single isomer, unassigned) [Example 11] | 186 |  | 212 |  |
| Cc1cc2[nH]ncc2c(-c2c(F)cc3c(N4CCC[C@@](C)(O)C4)nc(OC[C@@]45CCCN4C[C@H](F)C5)nc3c2F)c1Cl [Example 48, (3R)-1-(7-(5-Chloro-6-methyl-1H-indazol-4-yl)-6,8-difluoro-2-(((2R,7a.S)-2-fluorotetrahydro-1H-pyrrolizin-7a(5H)-yl)methoxy)quinazolin-4-y1)-3-methylpiperidin-3-ol] | 23 |  | 22 |  |
| CCc1c(F)ccc2cc(O)cc(-c3c(F)cc4c(N5CCCC6(CNC(=O)O6)C5)nc(OC[C@@]56CCCN5C[C@H](F)C6)nc4c3F)c12 (single isomer, unassigned) [Example 58] |  |  | 1 | 3 |
| CCc1c(F)ccc2cc(O)cc(-c3c(F)cc4c(N5CCC[C@@](C)(O)C5)nc(OC[C@@]56CCCN5C[C@H](F)C6)nc4c3F)c12 (atropisomer, axis not shown) [Example 3, (3R)-1-(7-(8-Ethyl-7-fluoro-3-hydroxynaphthalen-1-yl)-6,8-difluoro-2-(((2R,7a.S)-2-fluorotetrahydro-1H-pyrrolizin-7a(5H)-yl)methoxy)quinazolin-4-yl)-3-methylpiperidin-3-ol] | 134 |  | 127 |  |
| CCc1c(F)ccc2cc(O)cc(-c3ccc4c(N5CCCC(O)(C(F)F)C5)nc(OC[C@@]56CCCN5C[C@H](F)C6)nc4c3F)c12 (single isomer, unassigned) [Example 24] | 80 |  | 70 |  |
| CCc1c(F)ccc2cc(N)cc(-c3c(F)cc4c(N5CCC[C@@](C)(O)C5)nc(OC[C@@]56CCCN5C[C@H](F)C6)nc4c3F)c12 (single isomer, unassigned) [Example 61] | 272 |  | 729 |  |
| C#Cc1c(F)ccc2cc(N)cc(-c3c(F)cc4c(N5CCC[C@@](C)(O)C5)nc(OC[C@@]56CCCN5C[C@H](F)C6)nc4c3F)c12 (single isomer, unassigned) [Example 63] | 138 |  | 223 |  |
| CCc1c(F)ccc2cc(O)cc(-c3c(F)cc4c(N5CCCC(O)(C(F)F)C5)nc(OC[C@@]56CCCN5C[C@H](F)C6)nc4c3F)c12 (single isomer, unassigned) [Example 21] | 40 |  | 40 |  |
| CCc1c(F)ccc2cc(O)cc(-c3c(F)cc4c(N5CCCC6(CNC(=O)O6)C5)nc(OC[C@@]56CCCN5C[C@H](F)C6)nc4c3F)c12 (single isomer, unassigned) [Example 57] | 87 |  | 437 |  |
| Cc1c(Cl)cc2[nH]ncc2c1-c1c(F)cc2c(N3CCC[C@@](C)(O)C3)nc(OC[C@@]34CCCN3C[C@H](F)C4)nc2c1F [Example 49, (3R)-1-(7-(6-Chloro-5-methyl-1H-indazol-4-yl)-6,8-difluoro-2-(((2R,7aS)-2-fluorotetrahydro-1H-pyrrolizin-7a(5H)-yl)methoxy)quinazolin-4-yl)-3-methylpiperidin-3-ol] | 10 |  | 10 |  |
| C#Cc1c(F)ccc2cccc(-c3c(F)cc4c(N5CCC[C@@](C)(O)C5)nc(OC[C@@]56CCCN5C[C@H](F)C6)nc4c3F)c12 (single isomer, unassigned) [Example 66] | 589 |  | 657 |  |
